Measured values as given in US5773569A (Affymax Technologies N.V., priority 1995, dated 1998).
Residues, ends and D or L forms follow the SMILES beside them.

Legend:
[1] = target: T1, murine receptor (FDC-P1/ER cells) (Mus musculus, UniProt P14753); assay: cell-based; conditions: IA = inactive
T1 sequence (P14753 25-507): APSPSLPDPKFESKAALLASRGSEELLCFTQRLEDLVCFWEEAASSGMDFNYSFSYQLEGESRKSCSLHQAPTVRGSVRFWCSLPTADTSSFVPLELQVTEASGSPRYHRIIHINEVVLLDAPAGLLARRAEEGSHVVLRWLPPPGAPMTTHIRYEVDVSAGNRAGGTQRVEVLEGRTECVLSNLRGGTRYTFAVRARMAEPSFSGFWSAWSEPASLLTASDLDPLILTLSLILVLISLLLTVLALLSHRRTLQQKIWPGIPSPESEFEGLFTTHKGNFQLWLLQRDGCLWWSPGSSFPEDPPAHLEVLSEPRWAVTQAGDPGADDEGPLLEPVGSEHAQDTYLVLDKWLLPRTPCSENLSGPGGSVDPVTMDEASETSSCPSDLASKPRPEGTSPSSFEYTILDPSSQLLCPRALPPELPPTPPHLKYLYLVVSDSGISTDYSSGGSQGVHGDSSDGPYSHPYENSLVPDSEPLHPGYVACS
Description: Sample Preparation: Peptides were resuspended in DMSO as a 1×10^-2 M stock solution and serially diluted in 10-fold increments to generate the following 100×solutions:
Two μl of each stock dilution was added to a cell well as described below in a total volume of 200 μl to generate final concentrations as follows:
(§1) Cells are harvested and resuspended in fresh medium without growth factor (erytiropoietin) for 24 hr. Cells are counted and resuspended at a concentration of 800,000 cells/ml. Approximately forty thousand cells (50μ) are added to each well of a 96 well microtiter plate. Peptide is added to each well in triplicate. A standard dose response determination is run with each series of peptides. After a forty-two hr incubation (≈2 doubling), each well is pulsed with 1 μCi/well Thymidine. Cells are incubated an additional six hr at which time cells are harvested and counted to assess thymidine incorporation as an indicator of cell proliferation.

[2] = target: T2, truncated human erythropoietin receptor cell line (Homo sapiens, UniProt P19235); assay: cell-based
T2 sequence (P19235 25-468 limits assumed): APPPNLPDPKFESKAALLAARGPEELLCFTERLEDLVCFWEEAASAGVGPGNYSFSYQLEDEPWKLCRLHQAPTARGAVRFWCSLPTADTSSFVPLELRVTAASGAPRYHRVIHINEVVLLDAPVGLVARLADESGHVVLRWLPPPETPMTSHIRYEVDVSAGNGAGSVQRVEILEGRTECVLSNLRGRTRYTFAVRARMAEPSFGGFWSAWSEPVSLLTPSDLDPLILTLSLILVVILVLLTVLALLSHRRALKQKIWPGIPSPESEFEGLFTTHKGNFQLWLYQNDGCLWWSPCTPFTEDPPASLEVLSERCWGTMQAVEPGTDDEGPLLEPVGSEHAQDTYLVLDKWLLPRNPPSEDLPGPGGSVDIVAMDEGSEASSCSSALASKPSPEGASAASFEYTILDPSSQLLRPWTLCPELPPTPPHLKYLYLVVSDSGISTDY
Description: as §1

[3] = EPO-ED50 (μM)* murine receptor, Tables 20-21
[4] = EPO-ED50 (μM), Tables 17-19, amount for half maximal level of EPO dependent proliferation

Structure (SMILES) | EC50 [1, 3] [µM] | EC50 [2] [nM] | EC50 [1, 4] [µM]
CC[C@H](C)[C@H](NC(=O)[C@H](Cc1ccc(O)cc1)NC(=O)[C@H](CCC(N)=O)NC(=O)[C@H](C)NC(=O)[C@@H](NC(=O)[C@@H](N)[C@@H](C)O)[C@@H](C)CC)C(=O)N[C@H]1CSSC[C@@H](C(=O)N[C@@H](CCCNC(=N)N)C(=O)N2CCC[C@H]2C(=O)N[C@@H](CO)C(=O)N2CCC[C@H]2C(=O)N[C@@H](CCCCN)C(=O)N[C@@H](C)C(N)=O)NC(=O)[C@H](CCC(=O)O)NC(=O)[C@H](Cc2c[nH]c3ccccc23)NC(=O)[C@H]([C@@H](C)O)NC(=O)[C@H](CCC(=O)O)NC(=O)[C@@H]2CCCN2C(=O)CNC(=O)[C@H](CCSC)NC(=O)[C@H](Cc2ccc(O)cc2)NC1=O [AF11654] (HELM PEPTIDE1{T.I.A.Q.Y.I.C.Y.M.G.P.E.T.W.E.C.R.P.S.P.K.A.[am]}$PEPTIDE1,PEPTIDE1,7:R3-16:R3$$$V2.0) | 0.2 | 20 | 
CC(C)C[C@@H]1NC(=O)[C@@H]2CCCN2C(=O)CNC(=O)[C@H](Cc2ccccc2)NC(=O)[C@H](Cc2c[nH]cn2)NC(=O)[C@@H](NC(=O)[C@H](CO)NC(=O)[C@H](Cc2ccc(O)cc2)NC(=O)[C@@H](N)[C@@H](C)O)CSSC[C@@H](C(=O)N[C@@H](CCCCN)C(=O)N2CCC[C@H]2C(=O)N[C@@H](CCC(N)=O)C(N)=O)NC(=O)[C@H](C(C)C)NC(=O)[C@H](Cc2c[nH]c3ccccc23)NC(=O)[C@H]([C@@H](C)O)NC1=O [RWJ 61230] (HELM PEPTIDE1{T.Y.S.C.H.F.G.P.L.T.W.V.C.K.P.Q.[am]}$PEPTIDE1,PEPTIDE1,4:R3-13:R3$$$V2.0) |  |  | 2
CC(C)C[C@@H]1NC(=O)[C@@H]2CCCN2C(=O)CNC(=O)[C@H](Cc2ccccc2)NC(=O)[C@H](Cc2c[nH]cn2)NC(=O)[C@@H](NC(=O)[C@H](CO)NC(=O)[C@@H](N)Cc2ccc(O)cc2)CSSC[C@@H](C(=O)N[C@@H](CCCCN)C(=O)N2CCC[C@H]2C(N)=O)NC(=O)[C@H](C(C)C)NC(=O)[C@H](Cc2c[nH]c3ccccc23)NC(=O)[C@H]([C@@H](C)O)NC1=O [RWJ 61232] (HELM PEPTIDE1{Y.S.C.H.F.G.P.L.T.W.V.C.K.P.[am]}$PEPTIDE1,PEPTIDE1,3:R3-12:R3$$$V2.0) |  |  | 20
CC(C)C[C@@H]1NC(=O)[C@H](C)NC(=O)CNC(=O)[C@H](Cc2ccccc2)NC(=O)[C@H](Cc2c[nH]cn2)NC(=O)[C@@H](NC(=O)[C@H](CO)NC(=O)[C@H](Cc2ccc(O)cc2)NC(=O)[C@@H](NC(=O)CNC(=O)CN)[C@@H](C)O)CSSC[C@@H](C(=O)N[C@@H](CCCCN)C(=O)N2CCC[C@H]2C(=O)N[C@@H](CCC(N)=O)C(=O)NCC(=O)NCC(N)=O)NC(=O)[C@H](C(C)C)NC(=O)[C@H](Cc2c[nH]c3ccccc23)NC(=O)[C@H]([C@@H](C)O)NC1=O [RWJ 61277] (HELM PEPTIDE1{G.G.T.Y.S.C.H.F.G.A.L.T.W.V.C.K.P.Q.G.G.[am]}$PEPTIDE1,PEPTIDE1,6:R3-15:R3$$$V2.0) |  |  | 0.1
CC(C)C[C@@H]1NC(=O)[C@@H]2CCCN2C(=O)CNC(=O)[C@H](Cc2ccccc2)NC(=O)[C@H](Cc2c[nH]cn2)NC(=O)[C@@H](NC(=O)[C@H](CO)NC(=O)[C@@H](N)Cc2ccc(O)cc2)CSSC[C@@H](C(=O)N[C@@H](CCCCN)C(N)=O)NC(=O)[C@H](C(C)C)NC(=O)[C@H](Cc2c[nH]c3ccccc23)NC(=O)[C@H]([C@@H](C)O)NC1=O [RWJ 61279] (HELM PEPTIDE1{Y.S.C.H.F.G.P.L.T.W.V.C.K.[am]}$PEPTIDE1,PEPTIDE1,3:R3-12:R3$$$V2.0) |  |  | 3
CC(C)[C@@H]1NC(=O)[C@H](Cc2c[nH]c3ccccc23)NC(=O)[C@H]([C@@H](C)O)NC(=O)[C@H](C)NC(=O)[C@@H]2CCCN2C(=O)CNC(=O)[C@H](Cc2ccccc2)NC(=O)[C@H](Cc2c[nH]cn2)NC(=O)[C@@H](NC(=O)[C@H](CO)NC(=O)[C@H](Cc2ccc(O)cc2)NC(=O)[C@@H](NC(=O)CNC(=O)CN)[C@@H](C)O)CSSC[C@@H](C(=O)N[C@@H](CCCCN)C(=O)N2CCC[C@H]2C(=O)N[C@@H](CCC(N)=O)C(=O)NCC(=O)NCC(N)=O)NC1=O [RWJ 61314] (HELM PEPTIDE1{G.G.T.Y.S.C.H.F.G.P.A.T.W.V.C.K.P.Q.G.G.[am]}$PEPTIDE1,PEPTIDE1,6:R3-15:R3$$$V2.0) |  |  | 0.2
CC(C)C[C@@H]1NC(=O)[C@@H]2CCCN2C(=O)CNC(=O)[C@H](Cc2ccccc2)NC(=O)[C@H](Cc2c[nH]cn2)NC(=O)[C@@H](NC(=O)[C@@H](N)Cc2ccc(O)cc2)CSSC[C@@H](C(N)=O)NC(=O)[C@H](C(C)C)NC(=O)[C@H](Cc2c[nH]c3ccccc23)NC(=O)[C@H]([C@@H](C)O)NC1=O [RWJ 61513] (HELM PEPTIDE1{Y.C.H.F.G.P.L.T.W.V.C.[am]}$PEPTIDE1,PEPTIDE1,2:R3-11:R3$$$V2.0) |  |  | 2
CC(C)C[C@@H]1NC(=O)[C@@H]2CCCN2C(=O)CNC(=O)[C@H](Cc2ccccc2)NC(=O)[C@H](Cc2c[nH]cn2)NC(=O)[C@@H](NC(=O)[C@H](CO)NC(=O)[C@H](Cc2ccc(O)cc2)NC(=O)[C@@H](N)[C@@H](C)O)CSSC[C@@H](C(=O)N[C@@H](CCCCN)C(=O)N2CCC[C@H]2C(=O)N[C@@H](CCC(N)=O)C(=O)NCC(=O)NCC(N)=O)NC(=O)[C@H](C(C)C)NC(=O)[C@H](Cc2c[nH]c3ccccc23)NC(=O)[C@H]([C@@H](C)O)NC1=O [RWJ 61597] (HELM PEPTIDE1{T.Y.S.C.H.F.G.P.L.T.W.V.C.K.P.Q.G.G.[am]}$PEPTIDE1,PEPTIDE1,4:R3-13:R3$$$V2.0) |  |  | 2
CSCC[C@@H]1NC(=O)[C@H](Cc2c[nH]cn2)NC(=O)[C@@H](NC(=O)[C@H](C)NC(=O)[C@H](Cc2ccc(O)cc2)NC(=O)[C@H](CC(C)C)NC(=O)CNC(=O)CN)CSSC[C@@H](C(=O)N[C@@H](CCC(N)=O)C(=O)N2CCC[C@H]2C(=O)N[C@@H](CC(C)C)C(=O)N[C@@H](CCCNC(=N)N)C(=O)NCC(N)=O)NC(=O)[C@H](C(C)C)NC(=O)[C@H](Cc2c[nH]c3ccccc23)NC(=O)[C@H]([C@@H](C)O)NC(=O)[C@H](CCSC)NC(=O)[C@@H]2CCCN2C(=O)CNC1=O [RWJ 61718] | 0.15 | 80 | 0.1
CSCC[C@@H]1NC(=O)[C@H](CCCNC(=N)N)NC(=O)[C@@H](NC(=O)[C@H](CC(C)C)NC(=O)[C@H](Cc2ccc(O)cc2)NC(=O)[C@H](CCC(=O)O)NC(=O)CNC(=O)CN)CSSC[C@@H](C(=O)N[C@H](C(=O)N2CCC[C@H]2C(=O)N[C@H](C(=O)NCC(=O)NCC(N)=O)C(C)C)[C@@H](C)O)NC(=O)[C@H](C(C)C)NC(=O)[C@H](Cc2c[nH]c3ccccc23)NC(=O)[C@H]([C@@H](C)O)NC(=O)[C@H](CCSC)NC(=O)[C@@H]2CCCN2C(=O)CNC1=O [RWJ 61719] (HELM PEPTIDE1{G.G.E.Y.L.C.R.M.G.P.M.T.W.V.C.T.P.V.G.G.[am]}$PEPTIDE1,PEPTIDE1,6:R3-15:R3$$$V2.0) |  |  | 9
CC(C)C[C@@H]1NC(=O)[C@@H]2CCCN2C(=O)CNC(=O)[C@H](Cc2ccccc2)NC(=O)[C@H](Cc2c[nH]cn2)NC(=O)[C@@H](NC(=O)[C@H](CO)NC(=O)[C@H](Cc2ccc(O)cc2)NC(=O)[C@H](CCCCN)NC(=O)[C@H](CCCNC(=N)N)NC(=O)CNC(=O)[C@@H](N)CC(C)C)CSSC[C@@H](C(=O)N[C@@H](CCC(N)=O)C(=O)N2CCC[C@H]2C(=O)N[C@@H](C)C(=O)N[C@@H](CCCCN)C(=O)N[C@@H](CCCCN)C(=O)N[C@@H](CC(=O)O)C(N)=O)NC(=O)[C@H](C(C)C)NC(=O)[C@H](Cc2c[nH]c3ccccc23)NC(=O)[C@H]([C@@H](C)O)NC1=O [RWJ 61757] (HELM PEPTIDE1{L.G.R.K.Y.S.C.H.F.G.P.L.T.W.V.C.Q.P.A.K.K.D.[am]}$PEPTIDE1,PEPTIDE1,7:R3-16:R3$$$V2.0) | 0.11 | 150 | 
CC(C)C[C@@H]1NC(=O)[C@@H]2CCCN2C(=O)CNC(=O)[C@H](Cc2ccccc2)NC(=O)[C@H](Cc2c[nH]cn2)NC(=O)[C@@H](NC(=O)[C@H](CO)NC(=O)[C@H](Cc2ccc(F)cc2)NC(=O)[C@@H](NC(=O)CNC(=O)CN)[C@@H](C)O)CSSC[C@@H](C(=O)N[C@@H](CCCCN)C(=O)N2CCC[C@H]2C(=O)N[C@@H](CCC(N)=O)C(=O)NCC(=O)NCC(N)=O)NC(=O)[C@H](C(C)C)NC(=O)[C@H](Cc2c[nH]c3ccccc23)NC(=O)[C@H]([C@@H](C)O)NC1=O [RWJ 62020, GGTXSCHFGPLTWVCKPQGG] (HELM PEPTIDE1{G.G.T.[O=C([C@H](Cc1ccc(F)cc1)N[*:1])[*:2]].S.C.H.F.G.P.L.T.W.V.C.K.P.Q.G.G.[am]}$PEPTIDE1,PEPTIDE1,6:R3-15:R3$$$V2.0) | 1 | 100 | 
